Source: patent publication US20250034216A1, “STEREOSELECTIVE COVALENT LIGANDS FOR ONCOGENIC AND IMMUNOLOGICAL PROTEINS” (The Scripps Research Institute, priority 2021, published 2025)

What was measured:
Experiment in all cases: IA-DTB cysteine engagement
Type in all cases: binding
[1] = target: T1, ZFC3H1_C1778 (Homo sapiens, UniProt O60293); conditions: 22Rv1 cells, 20 μM probe, 1 h, relative to DMSO
T1 construct: endogenous in cells; host or cells: 22Rv1
Summary of the method: (§1)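 Competitive chemoproteomics: residual cysteine reactivity toward IA-DTB in lysates from probe-treated cells was quantified by TMT reporter ions relative to DMSO-treated controls. Replicates sharing cell line, probe, concentration and duration were averaged.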

[2] = target: T2, CDKAL1_C556 (Homo sapiens, UniProt Q5VV42); conditions: 22Rv1 cells, relative to DMSO; for % engagement CDKAL1_C556: 20 μM probe, 1 h; for % engagement CDKAL1_556: 5 μM probe, 1 h (FIG. 5B)
T2 construct: endogenous in cells; host or cells: 22Rv1
T2 sequence (Q5VV42 1-579): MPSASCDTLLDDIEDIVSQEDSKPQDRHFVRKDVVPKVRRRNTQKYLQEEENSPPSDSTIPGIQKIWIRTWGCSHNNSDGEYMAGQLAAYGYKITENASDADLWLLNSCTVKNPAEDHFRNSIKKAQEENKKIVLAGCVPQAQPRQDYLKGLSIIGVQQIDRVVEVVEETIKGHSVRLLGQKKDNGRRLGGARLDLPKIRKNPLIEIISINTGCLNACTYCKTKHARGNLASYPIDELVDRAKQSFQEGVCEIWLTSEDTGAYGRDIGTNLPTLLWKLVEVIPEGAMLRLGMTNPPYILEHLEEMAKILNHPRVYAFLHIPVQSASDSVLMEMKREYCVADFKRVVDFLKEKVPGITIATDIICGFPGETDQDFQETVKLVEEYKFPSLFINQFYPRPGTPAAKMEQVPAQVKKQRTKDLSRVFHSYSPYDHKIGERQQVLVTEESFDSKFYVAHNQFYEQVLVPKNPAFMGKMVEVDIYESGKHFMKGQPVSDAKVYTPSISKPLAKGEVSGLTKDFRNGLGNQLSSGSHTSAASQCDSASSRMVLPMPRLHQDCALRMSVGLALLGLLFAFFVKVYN
Summary of the method: as §1

[3] = target: T3, SLC25A20_C283 (Homo sapiens, UniProt O43772); conditions: 22Rv1 cells, relative to DMSO; for % engagement SLC25A20_C283: 20 μM probe, 1 h; for % engagement SLC25A20_283: 5 μM probe, 1 h (FIG. 5B)
T3 construct: endogenous in cells; host or cells: 22Rv1
T3 sequence (O43772 1-301): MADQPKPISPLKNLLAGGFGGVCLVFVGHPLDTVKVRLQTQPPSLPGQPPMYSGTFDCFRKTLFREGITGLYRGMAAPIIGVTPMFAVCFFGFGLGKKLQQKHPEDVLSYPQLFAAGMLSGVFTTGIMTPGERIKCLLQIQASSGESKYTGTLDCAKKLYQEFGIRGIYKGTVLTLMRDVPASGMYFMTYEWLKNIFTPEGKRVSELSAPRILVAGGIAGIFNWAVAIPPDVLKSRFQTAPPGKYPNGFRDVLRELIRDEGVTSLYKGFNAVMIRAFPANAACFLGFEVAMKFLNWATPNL
Summary of the method: as §1

[4] = target: T4, TRMT61A_C209 (Homo sapiens, UniProt Q96FX7); conditions: 22Rv1 cells, 20 μM probe, 1 h, relative to DMSO
T4 construct: endogenous in cells; host or cells: 22Rv1
Summary of the method: as §1

[5] = target: T5, CRYBG1_C1574 (Homo sapiens, UniProt Q9Y4K1); conditions: 22Rv1 cells, 20 μM probe, 1 h, relative to DMSO
T5 construct: endogenous in cells; host or cells: 22Rv1
Summary of the method: as §1

[6] = target: T6, SLC25A20_C89 (Homo sapiens, UniProt O43772); conditions: 22Rv1 cells, 20 μM probe, 1 h, relative to DMSO
T6 construct: endogenous in cells; host or cells: 22Rv1
T6 sequence (O43772 1-301): T3 sequence (O43772 1-301)
Summary of the method: as §1

T4 sequence (Q96FX7 whole entry): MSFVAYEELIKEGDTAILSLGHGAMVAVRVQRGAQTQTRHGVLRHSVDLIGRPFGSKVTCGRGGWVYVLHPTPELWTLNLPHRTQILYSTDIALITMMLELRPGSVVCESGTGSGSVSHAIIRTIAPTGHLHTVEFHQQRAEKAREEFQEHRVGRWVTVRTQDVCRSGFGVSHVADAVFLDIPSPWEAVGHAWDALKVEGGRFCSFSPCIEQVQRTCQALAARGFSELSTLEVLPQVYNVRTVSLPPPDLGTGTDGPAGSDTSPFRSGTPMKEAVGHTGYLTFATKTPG
T1 sequence (O60293 whole entry): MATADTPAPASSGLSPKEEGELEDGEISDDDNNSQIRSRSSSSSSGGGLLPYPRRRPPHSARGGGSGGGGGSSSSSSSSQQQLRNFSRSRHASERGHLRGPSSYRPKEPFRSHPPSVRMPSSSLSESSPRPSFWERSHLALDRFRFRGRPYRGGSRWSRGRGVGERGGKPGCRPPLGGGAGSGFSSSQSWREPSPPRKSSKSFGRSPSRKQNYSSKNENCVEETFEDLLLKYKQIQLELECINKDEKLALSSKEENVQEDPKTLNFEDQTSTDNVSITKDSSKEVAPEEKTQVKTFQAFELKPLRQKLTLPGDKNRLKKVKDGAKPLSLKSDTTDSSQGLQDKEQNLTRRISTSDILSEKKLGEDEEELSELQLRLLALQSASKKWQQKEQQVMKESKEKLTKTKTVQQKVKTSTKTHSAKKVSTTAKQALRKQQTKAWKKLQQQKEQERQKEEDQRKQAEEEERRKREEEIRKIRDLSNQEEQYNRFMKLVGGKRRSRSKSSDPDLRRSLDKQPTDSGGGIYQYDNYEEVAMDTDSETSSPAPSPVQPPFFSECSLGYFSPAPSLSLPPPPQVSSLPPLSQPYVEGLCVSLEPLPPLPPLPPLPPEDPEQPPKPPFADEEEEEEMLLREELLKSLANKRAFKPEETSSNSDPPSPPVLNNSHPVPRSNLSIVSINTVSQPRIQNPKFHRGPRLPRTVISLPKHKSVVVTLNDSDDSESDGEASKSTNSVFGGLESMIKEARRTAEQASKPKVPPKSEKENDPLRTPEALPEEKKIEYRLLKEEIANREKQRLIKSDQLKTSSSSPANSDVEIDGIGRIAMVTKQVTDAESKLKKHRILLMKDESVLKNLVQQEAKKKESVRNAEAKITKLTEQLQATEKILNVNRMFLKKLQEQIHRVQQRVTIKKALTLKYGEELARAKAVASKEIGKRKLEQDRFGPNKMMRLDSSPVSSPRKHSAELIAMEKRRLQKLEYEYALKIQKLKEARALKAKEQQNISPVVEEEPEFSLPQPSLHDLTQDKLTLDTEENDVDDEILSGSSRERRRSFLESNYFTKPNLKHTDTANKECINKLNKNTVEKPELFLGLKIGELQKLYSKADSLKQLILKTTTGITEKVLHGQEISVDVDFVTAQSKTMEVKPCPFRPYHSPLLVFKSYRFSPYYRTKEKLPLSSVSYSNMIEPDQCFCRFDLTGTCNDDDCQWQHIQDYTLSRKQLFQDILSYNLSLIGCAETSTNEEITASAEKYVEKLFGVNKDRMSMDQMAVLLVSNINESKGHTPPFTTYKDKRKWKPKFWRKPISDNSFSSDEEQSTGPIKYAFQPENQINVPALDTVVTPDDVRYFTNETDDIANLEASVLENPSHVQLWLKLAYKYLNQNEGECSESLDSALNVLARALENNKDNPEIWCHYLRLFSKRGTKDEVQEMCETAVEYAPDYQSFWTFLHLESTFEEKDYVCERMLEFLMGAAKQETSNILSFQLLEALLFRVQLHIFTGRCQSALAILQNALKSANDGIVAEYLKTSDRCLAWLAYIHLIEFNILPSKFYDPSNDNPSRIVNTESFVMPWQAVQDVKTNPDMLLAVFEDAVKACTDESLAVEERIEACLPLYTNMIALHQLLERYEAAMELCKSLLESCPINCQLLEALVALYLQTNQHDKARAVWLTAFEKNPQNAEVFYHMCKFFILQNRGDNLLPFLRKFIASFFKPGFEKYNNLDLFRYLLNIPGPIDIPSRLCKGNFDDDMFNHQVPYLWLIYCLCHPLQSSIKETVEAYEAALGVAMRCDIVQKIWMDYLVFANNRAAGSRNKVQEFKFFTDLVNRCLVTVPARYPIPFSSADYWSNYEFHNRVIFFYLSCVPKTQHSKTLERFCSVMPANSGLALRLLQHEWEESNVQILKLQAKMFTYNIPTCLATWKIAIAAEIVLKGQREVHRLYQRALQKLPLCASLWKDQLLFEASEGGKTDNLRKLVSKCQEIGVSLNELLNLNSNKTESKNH
T5 sequence (Q9Y4K1 whole entry): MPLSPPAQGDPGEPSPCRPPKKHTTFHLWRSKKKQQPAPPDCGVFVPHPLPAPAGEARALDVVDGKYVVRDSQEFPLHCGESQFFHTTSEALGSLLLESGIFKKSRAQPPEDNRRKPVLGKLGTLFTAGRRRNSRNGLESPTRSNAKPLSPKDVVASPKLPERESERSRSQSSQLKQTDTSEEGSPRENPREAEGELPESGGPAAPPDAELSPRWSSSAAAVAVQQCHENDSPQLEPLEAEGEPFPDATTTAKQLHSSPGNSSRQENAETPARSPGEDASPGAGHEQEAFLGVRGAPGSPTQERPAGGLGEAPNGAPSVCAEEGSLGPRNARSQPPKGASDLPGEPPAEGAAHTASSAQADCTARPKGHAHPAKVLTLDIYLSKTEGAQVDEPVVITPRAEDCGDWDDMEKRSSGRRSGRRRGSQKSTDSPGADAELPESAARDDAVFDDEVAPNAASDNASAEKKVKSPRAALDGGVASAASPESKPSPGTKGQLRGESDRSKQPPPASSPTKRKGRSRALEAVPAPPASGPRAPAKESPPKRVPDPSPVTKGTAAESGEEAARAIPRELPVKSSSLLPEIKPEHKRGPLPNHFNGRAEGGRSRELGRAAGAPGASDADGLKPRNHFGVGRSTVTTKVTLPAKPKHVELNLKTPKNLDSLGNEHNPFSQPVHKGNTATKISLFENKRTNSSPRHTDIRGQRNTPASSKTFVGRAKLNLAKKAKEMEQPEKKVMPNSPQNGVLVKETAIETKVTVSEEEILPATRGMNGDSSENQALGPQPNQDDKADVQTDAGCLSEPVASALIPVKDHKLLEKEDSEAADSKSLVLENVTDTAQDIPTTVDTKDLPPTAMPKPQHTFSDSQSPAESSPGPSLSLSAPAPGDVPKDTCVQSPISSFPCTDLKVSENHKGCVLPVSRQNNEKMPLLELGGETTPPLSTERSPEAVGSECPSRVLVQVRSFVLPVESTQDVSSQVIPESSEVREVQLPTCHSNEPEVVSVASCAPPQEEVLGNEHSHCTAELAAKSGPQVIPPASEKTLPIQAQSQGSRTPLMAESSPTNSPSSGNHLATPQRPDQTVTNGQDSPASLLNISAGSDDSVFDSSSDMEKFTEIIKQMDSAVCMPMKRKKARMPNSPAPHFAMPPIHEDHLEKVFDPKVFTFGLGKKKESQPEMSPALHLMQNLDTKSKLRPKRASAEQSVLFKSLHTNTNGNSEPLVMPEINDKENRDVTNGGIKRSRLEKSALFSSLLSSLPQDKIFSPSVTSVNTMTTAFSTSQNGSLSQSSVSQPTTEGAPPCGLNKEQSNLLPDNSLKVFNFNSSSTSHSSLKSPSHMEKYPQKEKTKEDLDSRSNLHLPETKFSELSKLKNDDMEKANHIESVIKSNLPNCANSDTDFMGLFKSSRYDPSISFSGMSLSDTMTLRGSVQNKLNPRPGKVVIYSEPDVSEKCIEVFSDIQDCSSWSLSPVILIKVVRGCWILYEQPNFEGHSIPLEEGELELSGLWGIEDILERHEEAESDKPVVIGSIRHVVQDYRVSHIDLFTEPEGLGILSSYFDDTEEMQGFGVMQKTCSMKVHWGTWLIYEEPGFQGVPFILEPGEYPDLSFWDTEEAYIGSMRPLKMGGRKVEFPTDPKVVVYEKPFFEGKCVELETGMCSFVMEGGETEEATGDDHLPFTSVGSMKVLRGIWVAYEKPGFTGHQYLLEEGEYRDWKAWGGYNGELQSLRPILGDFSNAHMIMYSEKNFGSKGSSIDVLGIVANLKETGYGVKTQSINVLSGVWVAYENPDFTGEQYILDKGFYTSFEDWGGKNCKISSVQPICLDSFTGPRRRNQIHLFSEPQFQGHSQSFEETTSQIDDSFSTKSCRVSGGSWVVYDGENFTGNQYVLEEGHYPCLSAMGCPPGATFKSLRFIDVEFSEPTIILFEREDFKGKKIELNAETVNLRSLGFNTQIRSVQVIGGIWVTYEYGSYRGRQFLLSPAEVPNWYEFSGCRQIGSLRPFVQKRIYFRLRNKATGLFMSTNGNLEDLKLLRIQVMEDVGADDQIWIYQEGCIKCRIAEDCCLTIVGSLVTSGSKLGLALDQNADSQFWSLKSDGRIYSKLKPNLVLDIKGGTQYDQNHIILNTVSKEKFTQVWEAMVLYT

Row | % engagement ZFC3H1_C1778 [1] | % engagement CDKAL1_C556 [2] | % engagement SLC25A20_C283 [3] | % engagement TRMT61A_C209 [4] | % engagement CRYBG1_C1574 [5] | % engagement SLC25A20_C89 [6] | % engagement CDKAL1_556 [2] | % engagement SLC25A20_283 [3] | Compound
1 | −22.75% | 89% | −241% | 56% | 13.5% | 91% | – | – | C=CC(=O)N1C[C@H](c2ccc(Br)cc2)[C@H]1C(=O)Nc1cccc2cccnc12 [MY-3B, (2S,3S)-1-acryloyl-3-(4-bromophenyl)-N-(quinolin-8-yl)azetidine-2-carboxamide]
2 | – | – | – | – | – | – | 67.00% | 20.50% | CC#CC(=O)N1C[C@H](c2ccc(Br)cc2)[C@@H]1C(=O)Nc1cccc2cccnc12 [MY-45B, (2R,3S)-3-(4-bromophenyl)-1-(but-2-ynoyl)-N-(quinolin-8-yl)azetidine-2-carboxamide]

Second part, the compound before the results:

Row | Compound | % engagement ZFC3H1_C1778 [1] | % engagement CDKAL1_C556 [2] | % engagement SLC25A20_C283 [3] | % engagement TRMT61A_C209 [4] | % engagement CRYBG1_C1574 [5] | % engagement SLC25A20_C89 [6] | % engagement CDKAL1_556 [2] | % engagement SLC25A20_283 [3]
3 | C=CC(=O)N1C[C@H](c2ccc(Br)cc2)[C@@H]1C(=O)Nc1cccc2cccnc12 [MY-1B, (2R,3S)-1-acryloyl-3-(4-bromophenyl)-N-(quinolin-8-yl)azetidine-2-carboxamide] | 7% | 91% | 92% | 67% | 72% | 94% | 79.33% | 82.75%
4 | C=CC(=O)N1C[C@H](c2ccc(Br)cc2)[C@H]1C(=O)Nc1cccc2cccnc12 [MY-3A, (2S,3S)-1-acryloyl-3-(4-bromophenyl)-N-(quinolin-8-yl)azetidine-2-carboxamide] | 47.75% | 88.5% | 66% | 18.75% | 28.5% | 45% | – | –
5 | C=CC(=O)N1C[C@@H](c2ccc(Br)cc2)[C@H]1C(=O)Nc1cccc2cccnc12 [MY-1A, (2S,3R)-1-acryloyl-3-(4-bromophenyl)-N-(quinolin-8-yl)azetidine-2-carboxamide] | 70.75% | 59.5% | 37% | 40.75% | 23% | 9.5% | – | –
